What all share (assay type): cell-based, human
Assay [1] deals with Peripheral blood Mononuclear cells (PBMC) of patient #3; leukocytes of a healthy volunteer as chemotactic cells. Description: Migration of healthy-volunteer leukocytes toward reactive solution of patient #3 mononuclear cells stimulated with suspected drug (Example 3). The settings on record: for Velocity (judgment of migration velocity, % of control) / Distance (judgment of migration distance, % of control): patient #3 PBMC + serum, 72 h, suspected drugs at ½ of Cmax, PHA 1 μg/ml, relative to PHA-stimulated reactive solution; for chemotaxis or migration ability of the chemotactic cells (FIG. 5A): images recorded for 20 minutes. The method, then: Leukocytes including granulocytes such as neutrophils were separated from heparinized blood of a healthy volunteer who had no allergic symptom by the density gradient centrifugation (Lymphocyte (Registered Trademark)—poly: CEDARLANE Labs. Ltd., Ontario, Canada) in accordance with a conventional method, and suspended in 5 ml of a culture medium (RPMI 1640: Sigma-Aldrich, MO, USA). After culturing the cells in a CO2 incubator at 37° C. for 1 hour the cells was adjusted to the concentration of about 5×10^5 cells/ml and used as chemotactic cells.
The chemotactic cells were injected into the lower well in the holder of EZ-TAXIScan™ (GE Healthcare, Tokyo) at about 5 μl/well, and were drawn to the end of the observation terrace by suction. Subsequently, the serum was injected into the upper well at 1.5 μl/well with a microsyringe to create a concentration gradient on the observation terrace, and images of the chemotactic cells on the observation terrace were sequentially recorded. The depth of the terrace was 4 μm.
The kinetics of the chemotactic cells migrating on the observation terrace was analyzed with software for processing images, ImageJ (NIH, MD, USA). Various parameters concerned with chemotaxis or migration ability of the cell toward the serum such as velocity, distance and direction of the migration were calculated. The statistical analysis was performed using GraphPad Prism (Registered Trademark) (GraphPad Software, CA, USA).
A drug solution was prepared by dissolving a drug in a Hank's balanced salt solution (HBSS: Sigma-Aldrich) if the drug was a solid preparation such as a soluble tablet or a powder. If the drug was poorly soluble, it was dissolved in Dimethyl-sulfoxide (DMSO: Sigma-Aldrich) and the solution was diluted with HBSS so that the final concentration of DMSO was 1% or less. A solution containing the drug solution and the serum of the patient in a ratio of 1:1 was used as a solution of the antigenic drug. The concentrations of the suspected drugs were set to ½ of the Cmax in principle. The concentration of phytohemagglutinin (PHA: Wako Pure Chemical Industries, Ltd., Osaka), a control antigen for stimulating or activating the lymphocytes, was set to 1 μg/ml.
Peripheral blood Mononuclear cells (PBMC) were separated from heparinized blood of the patient by density gradient centrifugation (Lymphoprep™: Axis-Shield PoC, Oslo, Norway) in a conventional manner, washed with HBSS, and then adjusted to the concentration of about 5×10^6 cells/ml with a culture medium for reaction (RPMI 1640 containing 10% horse serum (Invitrogen, CA, USA)).
A mixture of the suspension of the mononuclear cells and the solution of the antigenic drug in a ratio of 4:1 was reacted in a CO2 incubator at 37° C. for 72 hours, and the supernatant was used as a reactive solution stimulated with the antigen. PHA (a), gasmotin (b), dogmatyl (c), pariet (d) and DMSO (e) were used as the antigen.
The cell kinetics was measured in the substantially same manner as in Example 1 excepting that the reactive solution stimulated with the antigen was injected into the upper well in place of the serum.

Assay [2] deals with leukocytes of the patient. Description: LMT (leukocyte migration test). The conditions noted are these: positive with MI value > 150 and p < 0.05. The method, then: (§1) The patient having the typical allergy-like symptom (skin lesion) and the atypical patient were tested by the three different methods, namely the DLST, which is widely used for clinical tests, the LMT, which is sometimes reported more accurate than the DLST, and the present method, and then the results were compared. […] The typical case was determined as negative though the patient clearly developed the skin symptom of the toxic epidermal necrolysis (TEN) according to the clinical presentation and the clinical course.

The subject of assay [3] is lymphocytes of the patient. Description: DLST (drug-induced lymphocyte stimulation test). As to the method:
as §1

[4] abbreviates: patient #3, vs other suspected drugs and solvent (c, d and e), p<0.05.

Regarding `CCN1CCCC1CNC(=O)c1cc(S(N)(=O)=O)ccc1OC` (stereo not shown) [dogmatyl, Sulpride], the “Velocity (judgment of migration velocity, % of control)” value in assay [1] is reported as “+/− (80~90)”.
In the case of Mosapride citrate hydrate [gasmotin], in assay [1] (patient #3), the “chemotaxis or migration ability of the chemotactic cells (FIG. 5A)” value is listed as “rapid migration of the chemotactic cells in the positive direction of the density gradient”. In assay [1] (setting [4]), the “migration distance (FIG. 5C)” value is recorded as “significantly larger” and the “migration velocity (FIG. 5B)” value is on record as “significantly larger”. Moreover, in assay [1], the “Distance (judgment of migration distance, % of control)” value is “++ (>120)” and the “Velocity (judgment of migration velocity, % of control)” value is listed as “++ (>120)”.
With `COCCCOc1ccnc(C[S+]([O-])c2nc3ccccc3[nH]2)c1C` (stereo not shown) [pariet, Rabeprazole sodium], the “Velocity (judgment of migration velocity, % of control)” value in assay [1] is reported as “+ (90~120)”.
As for `CO/N=C(\C(=O)N[C@@H]1C(=O)N2C(C(=O)O)=C(C[N+]3(C)CCCC3)CS[C@H]12)c1csc(N)n1` [Maxipime], the “LMT (MI value)” value in assay [2] (Patient A) is on record as 88.21. Further, in assay [3] (Patient A, positive with SI value > 180), the “DLST (SI value)” value is 112.
For `CCC(C)n1ncn(-c2ccc(N3CCN(c4ccc(OCC5COC(Cn6cncn6)(c6ccc(Cl)cc6Cl)O5)cc4)CC3)cc2)c1=O` (stereo not shown) [Itraconazole], in assay [2] (Patient B, test 2), the “LMT (MI value)” value is recorded as 135.5. Also, the “DLST (SI value)” value was 151 in assay [3] (Patient B, test 1, positive with SI value > 180) and 90 in assay [3] (Patient B, test 2, positive with SI value > 180).
As for phytohemagglutinin [PHA], the “LMT (MI value)” value in assay [2] (Patient A) is on record as 154.87; in assay [2] (Patient B) it was 283.9. The “DLST (SI value)” value in assay [3] (Patient A, class symbol) was “+ (Positive with *SI value > 180 (DLST))”; in assay [3] (Patient B, class symbol), “+ (Positive with *SI value > 180 (DLST))”. In assay [1] (patient #3), the “chemotaxis or migration ability of the chemotactic cells (FIG. 5A)” value is “weaker than that induced with (b) but stronger than those induced with the other suspected drugs”. The “Distance (judgment of migration distance, % of control)” value in assay [1] was “+ (90~120)”. Besides, in assay [1], the “Velocity (judgment of migration velocity, % of control)” value is given as “+ (90~120)”.

Values taken from patent US10324079B2, “Method for rapid testing allergy” (priority 2013, dated 2019).
